Paper PMC10384572, “Marine Meroterpenoids Isolated from Gongolaria abies-marina Induce Programmed Cell Death in Naegleria fowleri” (Pharmaceuticals, 2023)

How the values were obtained:
[1] = In vitro cytotoxicity against murine macrophages (alamarBlue); format: cell-based; details: mouse, J774A.1 murine macrophages (ATCC TIB-67), murine macrophages J774A.1, 24 h, mean ± SD
Description: Murine macrophages from the J774A.1 cell line (ATCC® TIB-67) were maintained in Dulbecco’s Modified Eagle’s medium (DMEM) in order to evaluate the toxicity of the compounds. In addition, 10% (v/v) FBS and 10 μg/mL gentamicin (Sigma-Aldrich, Madrid, Spain) were added to the growth medium. Cells were grown in a 5% CO2 atmosphere at 37 °C.
For the cytotoxicity assays, the same protocol as detailed in Section 4.4 above was used. Murine macrophages were incubated with serial dilutions of the evaluated compounds at 37 °C in a 5% CO2 atmosphere over 24 h. The obtained data were analyzed as described in the previous section in order to calculate the CC50.
(§1) The in vitro IC50, IC90, and CC50 of the compounds were determined by a non-linear regression with a 95% confidence limit. The SigmaPlot 12.0 software (Systat Sofware Inc., London, UK) was used to perform the data analysis using a paired two-tailed t-test. Values of p < 0.05 were considered significant. The data represent the mean value and the SD of the conducted three different experiments.

[2] = system: N. fowleri ATCC® 30215; test: In vitro activity against N. fowleri trophozoites (alamarBlue), strain ATCC 30215; format: cell-based; details: Naegleria fowleri, ATCC30215, 48 h, mean ± SD
Description: (§2) The in vitro activity against N. fowleri trophozoites was evaluated in two different strains from the American Type Culture Collection (LG Promochem, Barcelona, Spain), ATCC® 30808™ and ATCC® 30215™. Cells were axenically grown in 2% Bactocasitone (w/v) medium (Thermo Fisher Scientific, Madrid, Spain) at 37 °C. Moreover, 10% (v/v) of fetal bovine serum (FBS) 0.3 μg/mL of Penicillin G Sodium Salt and 0.5 mg/mL of Streptomycin sulphate (Sigma-Aldrich, Madrid, Spain) were also added to the Bactocasitone medium.
(§3) For these assays, a colorimetric assay was conducted using the alamarBlue® reagent. Briefly, N. fowleri trophozoites were seeded in duplicate in a 96-well microtiter plate. After that, different concentrations of the evaluated meroterpenoids diluted in fresh Bactocasitone were added to the wells. The negative control consisted on the trophozoites incubated with the medium alone. Lastly, the alamarBlue® (Life Technologies, Madrid, Spain) reagent was added. Plates were incubated in slight agitation at 37 °C. After 48 h, the fluorescence of the wells was analyzed in an EnSpire Multimode Plate Reader (Perkin Elmer, Madrid, Spain) using a wavelength of excitation of 570 nm and a wavelength of emission of 585 nm.
(§4) In order to calculate the IC50 and IC90, a nonlinear regression analysis with a 95% confidence limit was performed.
as §1

[3] = system: N. fowleri ATCC® 30808; test: In vitro activity against N. fowleri trophozoites (alamarBlue), strain ATCC 30808; format: cell-based, Naegleria fowleri; details: for IC50: Naegleria fowleri, ATCC30808, N. fowleri trophozoites, 48 h, alamarBlue, mean ± SD, read-out: IC50 ATCC® 30808; for Anti-Naegleria activity (in words): both tested strains of N. fowleri
Description: as §2, §3, §4, §1

[4] = system: Acanthamoeba; set-up: method as in PMID 36916403; details: cited from earlier work

Row | SMILES | CC50 at 24 h [1] | IC50 [2] | IC50 [3] | Activity against tested species of Acanthamoeba (in words) [4] | Anti-Naegleria activity (in words) [3] | Anti-Naegleria activity (in words) ([3]; listed as 5) | Anti-Naegleria activity (in words) ([3]; listed as gongolarone C (5))
1 | C[C@@H]1[C@H](O)[C@@H](C)/C=C/C=C/C=C/C=C/C=C/C=C/C=C/[C@H](O[C@@H]2O[C@H](C)[C@@H](O)[C@H](N)[C@@H]2O)C[C@@H]2O[C@](O)(C[C@@H](O)C[C@@H](O)[C@H](O)CC[C@@H](O)C[C@@H](O)CC(=O)O[C@H]1C)C[C@H](O)[C@H]2C(=O)O [Amphotericin B, amphotericin B, reference compound] | > 200 µM | 0.16 ± 0.03 µM | 0.12 ± 0.03 µM |  |  |  | 
2 | COc1c(C)cc(O)cc1C/C=C(\C)CC(=O)/C=C(\C)CCC[C@@H](C)[C@H]1C[C@@H](O)C(C)(C)O1 [Gongolarone A (4), gongolarone A] | > 400 µM |  | > 100 µM | most active | no anti-Naegleria activity |  | 
3 | COc1c(C)cc(O)cc1CC/C(C)=C/C(=O)/C=C(\C)CCC[C@@H](C)C(=O)/C=C/C(C)(C)O [Gongolarone C (5), gongolarone C] | > 400 µM |  | > 100 µM | most active |  | no anti-Naegleria activity | loss of activity
4 | CCCCCCCCCCCCCCCCOP(=O)([O-])OCC[N+](C)(C)C [Miltefosine, miltefosine, reference compound] | 128 ± 8.85 µM | 81.6 ± 7.23 µM | 38.7 ± 4.23 µM |  |  |  | 
